Assay in all cases: inhibition of tumour cell growth, NCI panel, 48 h
Assay [1] has as its system CCRF-CEM leukemia.
For assay [2], the system named is HL-60(TB) leukemia.
For assay [3], the system named is HOP-62 NSCLC.
In assay [4] the test system is K-562 leukemia.
Assay [5] has as its system MCF7 breast.
The subject of assay [6] is MDA-MB-231 breast.
For assay [7], the system named is MDA-N.
In assay [8] the test system is NCI-H460 lung.
In assay [9] the test system is NCI/ADR-RES ovarian.
Assay [10] relates to OVCAR-8 ovarian.
Assay [11] deals with T-47D breast.
Assay [12] relates to U251 CNS.
For assay [13], the system named is UO-31 renal.
Assay [14] relates to DU-145 prostate.
The test system of assay [15] is HOP-92 NSCLC.
Assay [16] has as its system IGROV1 ovarian.
The subject of assay [17] is M14 melanoma.
The subject of assay [18] is RXF 393 renal.
Assay [19] concerns SF-268 CNS.
The test system of assay [20] is SK-MEL-5 melanoma.

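Exposure lasted 48 hours, with cells grown in 96-well plates and compounds tested at five concentrations. The concentration for full growth arrest is given as TGI.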

`Nc1ncnc2c1ncn2[C@@H]1C[C@@H]1CO`: the TGI in [1], in assay [2], in assay [3], in [4], in [5] and in [6] was above 100 µM each time. Also, the TGI in [7], in assay [8], in [9], in assay [10], in [11] and in assay [12] was above 100 µM throughout. In assay [13], this compound gave a TGI above 100 µM.
As for `COC(=O)C1=C(O)C(C(=O)OC)[C@]2(O)[C@H](C(=O)OC)[C@H]1C[C@@H](c1ccc(C(F)(F)F)cc1)[C@H]2C(=O)OC` (some centres not stated), the TGI in assay [14] is 28.1 µM; in assay [2], 30.2 µM; in [3], above 100 µM; in [15] it was 34 µM; in assay [16] it was 29 µM; in [4] it was above 100 µM. Moreover, the TGI is 29.4 µM in assay [17]; above 100 µM in [5]; above 100 µM in assay [6]; 17.2 µM in assay [7]; above 100 µM in assay [8]; above 100 µM in assay [10]. Also, the TGI is 6.5 µM in [18]; above 100 µM in assay [19]; 10.9 µM in [20]; above 100 µM in [11]; 14.9 µM in assay [12]; 8.42 µM in assay [13].
On to `CC12CC(c3ccccc3O1)C(C(=O)Nc1ccc(Cl)cc1Cl)C(=O)N2` (configuration not stated), for which the TGI in assay [1] is 30.1 µM; in [14], above 100 µM; in [2] it was 21.2 µM; in assay [3] it was 48.4 µM; in assay [16], 50.9 µM; in [4] it was above 100 µM. For the same compound, the TGI in [17] is 31.9 µM; in [5], above 100 µM; in assay [7], above 100 µM; in assay [8], above 100 µM; in [9] it was above 100 µM; in assay [10] it was 30.6 µM. Further, the TGI is above 100 µM in [19]; above 100 µM in [20]; 70.9 µM in assay [11]; 48.2 µM in [12]; 37.7 µM in assay [13].
On to `O=c1c(/C=C/c2c(O)ccc3ccccc23)nnc2sc(-c3cccc(Br)c3)nn12`, for which the TGI in assay [1] is 18.6 µM; in assay [14], 45.3 µM; in assay [2], 26.6 µM; in assay [3] it was above 100 µM; in [16], 15.8 µM; in assay [4] it was 77.7 µM. The TGI in [17] is 66.4 µM; in assay [5] it was 84.4 µM; in [7], above 100 µM; in assay [8], above 100 µM; in [9] it was 88.4 µM; in assay [10] it was 23.6 µM. In addition, the TGI in [19] is above 100 µM; in assay [20] it was 37.5 µM; in assay [11] it was 37.3 µM; in assay [12] it was above 100 µM; in assay [13], 69.6 µM.
As to `CSc1nc(Nc2cccc(C(F)(F)F)c2)c2c(N)nn(C)c2n1`, the TGI in [1], in assay [14], in assay [3], in [16], in assay [4] and in assay [17] was above 100 µM in each case. Moreover, the TGI in [6], in assay [7], in assay [8], in [9], in [10] and in assay [18] was above 100 µM throughout. Besides, the TGI in [19], in [20], in assay [11], in [12] and in [13] was above 100 µM throughout.
Consider `OC1C#CCSCC#C/C=C\1` (configuration not stated), for which the TGI is 98.4 µM in [1]; above 100 µM in assay [14]; 71.8 µM in assay [2]; above 100 µM in assay [3]; above 100 µM in [15]; above 100 µM in assay [16]. In addition, the TGI is 75.9 µM in assay [4]; above 100 µM in [17]; above 100 µM in [5]; above 100 µM in assay [6]; above 100 µM in [7]; 36.5 µM in assay [8]. The TGI was 7.72 µM in [9]; 77 µM in assay [10]; 68.1 µM in assay [18]; above 100 µM in assay [19]; above 100 µM in assay [12]; above 100 µM in assay [13].
Turning to `CCOC(=O)NC(Nc1ccc(S(=O)(=O)Nc2nc(C)cc(C)n2)cc1)(C(=O)OCC)C(F)(F)F` (configuration not stated), the TGI in assay [1], in assay [14], in assay [2], in assay [3], in assay [15] and in assay [16] was above 100 µM throughout. For the same compound, the TGI in assay [4], in assay [17], in [5], in assay [6], in [7] and in assay [8] was above 100 µM each time. Further, the TGI in assay [10], in assay [18], in assay [19], in assay [20], in assay [11] and in [12] was above 100 µM throughout. The same compound registered a TGI in assay [13] above 100 µM.
Regarding `Cc1cc(S(=O)(=O)Nc2n[nH]c(N)n2)c(SCC(=O)O)cc1Cl`, the TGI in [1], in assay [14], in assay [2], in [3], in [15] and in assay [16] was above 10 µM throughout. The TGI in assay [4], in [17], in assay [5], in assay [7], in assay [8] and in assay [9] was above 10 µM throughout. Moreover, the TGI in assay [10], in assay [18], in assay [19], in assay [20], in assay [11] and in assay [12] was above 10 µM each time. The TGI in [13] is above 10 µM.
On to `CCC(C)OC(=O)/C(Br)=C1/OC(=O)c2ccccc2-c2ccccc21` (configuration not stated), for which the TGI was 52 µM in [1]; above 100 µM in assay [14]; above 100 µM in [2]; 35.1 µM in [3]; 81.9 µM in assay [15]; 40.6 µM in [4]. The TGI was above 100 µM in assay [17]; above 100 µM in assay [5]; above 100 µM in assay [7]; 73.9 µM in [8]; 71.4 µM in [9]; above 100 µM in [10]. Besides, the TGI is 21.5 µM in [18]; above 100 µM in assay [19]; 56.2 µM in assay [20]; above 100 µM in assay [11]; 73 µM in assay [13].
Consider `CN(CC(=O)O)c1ncc2c(n1)CCCC2`, for which the TGI in [1], in [14], in assay [2], in assay [3], in assay [15] and in assay [16] was above 100 µM in each case. Moreover, the TGI in [4], in assay [17], in assay [5], in [6], in [7] and in assay [8] was above 100 µM throughout. The TGI in assay [9], in assay [10], in assay [18], in assay [19], in [20] and in assay [12] was above 100 µM each time. The TGI in [13] is above 100 µM.
As to `CCCCCCOC(=O)/C=C/[C@]1(CO)C/C(=C/CC(C(C)C)C(C)C)C(=O)O1`, the TGI was determined as 37 µM in assay [14]; 23.2 µM in [2]; 27.6 µM in [3]; 25.4 µM in [15]; 28.9 µM in assay [16]; 31.2 µM in assay [4]. The TGI came out at 25.1 µM in [17]; 30.4 µM in assay [5]; 5.35 µM in [7]; 20.5 µM in [8]; 28.1 µM in assay [9]; 31.6 µM in assay [10]. The TGI in [18] came to 36.9 µM; in [19], 23.5 µM; in [20] it was 20.3 µM; in [11] it was 37.5 µM; in [13], 17.8 µM.
Regarding `COC(=O)c1ccccc1/C=C1\Cc2ccc(C)c(C)c2C1=O`, the TGI in [1] is above 100 µM; in assay [14] it was above 100 µM; in [2], above 100 µM; in [3], above 100 µM; in assay [15] it was 92.5 µM; in assay [16] it was above 100 µM. The TGI in [4], in assay [17], in assay [5], in [7], in assay [8] and in assay [9] was above 100 µM each time. Also, the TGI in assay [10], in assay [18], in assay [19], in assay [20], in assay [11] and in assay [12] was above 100 µM each time. The compound also showed a TGI in [13] above 100 µM.
Turning to `COC(=O)c1cc2ccc(N)nc2[nH]c1=O`, the TGI in assay [3], in assay [15], in [16], in assay [17], in assay [5] and in assay [6] was above 100 µM throughout. The TGI in [7], in assay [8], in assay [9], in [10], in assay [18] and in [19] was above 100 µM in each case. For the same compound, the TGI in assay [20], in assay [11], in assay [12] and in assay [13] was above 100 µM throughout.
Consider `N#Cc1c(N)n(-c2cccc(C(=O)O)c2)c(=O)c2cc([N+](=O)[O-])ccc12`, for which the TGI in assay [14], in assay [2], in assay [15], in [4], in assay [6] and in assay [7] was above 100 µM each time. Moreover, the TGI in [8], in assay [9], in assay [10], in [19], in assay [20] and in assay [11] was above 100 µM in each case. The TGI in assay [12] and in assay [13] was above 100 µM throughout.
With `O=[N+]([O-])c1ccc2c(c1)C1=C(CO2)Cc2ccccc2O1`, the TGI in assay [1] is above 100 µM; in assay [14], above 100 µM; in assay [3], above 100 µM; in assay [15] it was 81.5 µM; in assay [16], 55.4 µM; in assay [4], above 100 µM. In addition, the TGI in [17] is 37.4 µM; in assay [6] it was 51.4 µM; in assay [7], 33.1 µM; in [9], above 100 µM; in assay [10] it was above 100 µM; in assay [19], 63.5 µM. Besides, the TGI was 29.7 µM in [20], above 100 µM in [11], 36.2 µM in [12] and 28.1 µM in assay [13].
Regarding `COC(=O)C1=C(C(=O)NNc2ccccc2)N(c2cccnc2Cl)C(c2ccccc2)=CC1c1ccccc1` (configuration not stated), the TGI in assay [1], in assay [14], in [2], in assay [3], in assay [16] and in assay [4] was above 100 µM each time. In addition, the TGI is above 100 µM in [17]; above 100 µM in assay [5]; above 100 µM in assay [6]; 45.6 µM in assay [7]; above 100 µM in assay [8]; above 100 µM in assay [10]. The TGI in [19], in assay [20], in [11] and in assay [12] was above 100 µM throughout.

Source of the values: PubChem BioAssay (NCI).
